The molecules below were run against T1, recombinant human Estrogen Receptor alpha ligand binding domain, residues 307-554 (ER alpha-LBD (GST)) (Homo sapiens, UniProt P03372) (assay: ERα binding assay (LanthaScreen TR-FRET competition)). Conditions: TR-FRET competition with Fluormone ES2 tracer, 4 hours at room temperature; single experiment or average of two or more.
T1 construct: made in house
T1 sequence (P03372 307-554): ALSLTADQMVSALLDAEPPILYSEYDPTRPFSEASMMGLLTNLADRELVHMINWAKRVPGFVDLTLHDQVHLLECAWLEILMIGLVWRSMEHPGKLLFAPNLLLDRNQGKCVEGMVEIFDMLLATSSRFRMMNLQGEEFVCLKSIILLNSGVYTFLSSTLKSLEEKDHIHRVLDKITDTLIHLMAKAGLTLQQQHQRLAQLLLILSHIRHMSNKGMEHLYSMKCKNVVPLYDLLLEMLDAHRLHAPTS

Compound	IC50
Cc1ncsc1-c1ccc([C@H](C)NC(=O)[C@@H]2C[C@@H](O)CN2C(=O)[C@@H](NC(=O)COCCOCCOCCOc2cc(F)c([C@@H]3c4[nH]c5ccccc5c4C[C@@H](C)N3CC(C)(C)F)c(F)c2)C(C)(C)C)cc1 [Example 3, (2S,4R)-1-((S)-2-(tert-Butyl)-14-(3,5-difluoro-4-((1R,3R)-2-(2-fluoro-2-methylpropyl)-3-methyl-2,3,4,9-tetrahydro-1H-pyrido[3,4-b]indol-1-yl)phenoxy)-4-oxo-6,9,12-trioxa-3-azatetradecanoyl)-4-hydroxy-N—((S)-1-(4-(4-methylthiazol-5-yl)phenyl)ethyl)pyrrolidine-2-carboxamide]	0.8 nM
Cc1ncsc1-c1ccc(CNC(=O)[C@@H]2C[C@@H](O)CN2C(=O)[C@@H](NC(=O)COCc2ccc(OCCOc3cc(F)c([C@@H]4c5[nH]c6ccccc6c5C[C@@H](C)N4CC(C)(C)F)c(F)c3)cc2)C(C)(C)C)cc1 [Example 4, (2S,4R)-1-((S)-2-(2-((4-(2-(3,5-Difluoro-4-((1R,3R)-2-(2-fluoro-2-methylpropyl)-3-methyl-2,3,4,9-tetrahydro-1H-pyrido[3,4-b]indol-1-yl)phenoxy)ethoxy)benzyl)oxy)acetamido)-3,3-dimethylbutanoyl)-4-hydroxy-N-(4-(4-methylthiazol-5-yl)benzyl)pyrrolidine-2-carboxamide]	0.8 nM
Cc1ncsc1-c1ccc(CNC(=O)[C@@H]2C[C@@H](O)CN2C(=O)[C@@H](NC(=O)COCCOCCOCCOCC(=O)Nc2ccc([C@@H]3c4[nH]c5ccccc5c4C[C@@H](C)N3CC(C)(C)F)cc2)C(C)(C)C)cc1 [Example 55, N^1-(4-((1R,3R)-2-(2-fluoro-2-methylpropyl)-3-methyl-2,3,4,9-tetrahydro-1H-pyrido[3,4-b]indol-1-yl)phenyl)-N^14—((S)-1-((2S,4R)-4-hydroxy-2-((4-(4-methylthiazol-5-yl)benzyl)carbamoyl)pyrrolidin-1-yl)-3,3-dimethyl-1-oxobutan-2-yl)-3,6,9,12-tetraoxatetradecanediamide, Trifluoroacetic Acid]	12 nM
Cc1ncsc1-c1ccc(CNC(=O)[C@@H]2C[C@@H](O)CN2C(=O)[C@@H](NC(=O)COCCOCCOCCOCCOCC(=O)Nc2ccc([C@@H]3c4[nH]c5ccccc5c4C[C@@H](C)N3CC(C)(C)F)cc2)C(C)(C)C)cc1 [Example 56, N^1-(4-((1R,3R)-2-(2-fluoro-2-methylpropyl)-3-methyl-2,3,4,9-tetrahydro-1H-pyrido[3,4-b]indol-1-yl)phenyl)-N^17—((S)-1-((2S,4R)-4-hydroxy-2-((4-(4-methylthiazol-5-yl)benzyl)carbamoyl)pyrrolidin-1-yl)-3,3-dimethyl-1-oxobutan-2-yl)-3,6,9,12,15-pentaoxaheptadecanediamide, Trifluoroacetic Acid]	20 nM
Cc1ncsc1-c1ccc(CNC(=O)[C@@H]2C[C@@H](O)CN2C(=O)[C@@H](NC(=O)COCCOCCOCC(=O)Nc2ccc([C@@H]3c4[nH]c5ccccc5c4C[C@@H](C)N3CC(C)(C)F)cc2)C(C)(C)C)cc1 [Example 57, (2S,4R)-1-((S)-2-(tert-butyl)-14-((4-((1R,3R)-2-(2-fluoro-2-methylpropyl)-3-methyl-2,3,4,9-tetrahydro-1H-pyrido[3,4-b]indol-1-yl)phenyl)amino)-4,14-dioxo-6,9,12-trioxa-3-azatetradecanoyl)-4-hydroxy-N-(4-(4-methylthiazol-5-yl)benzyl)pyrrolidine-2-carboxamide, Trifluoroacetic Acid]	8.8 nM
Cc1ncsc1-c1ccc(CNC(=O)[C@@H]2C[C@@H](O)CN2C(=O)[C@@H](NC(=O)COCCOCCNC(=O)/C=C/c2cc(F)c([C@@H]3c4[nH]c5ccccc5c4C[C@@H](C)N3CC(C)(C)F)c(F)c2)C(C)(C)C)cc1 [Example 58, (2S,4R)-1-((S,E)-2-(tert-butyl)-15-(3,5-difluoro-4-((1R,3R)-2-(2-fluoro-2-methylpropyl)-3-methyl-2,3,4,9-tetrahydro-1H-pyrido[3,4-b]indol-1-yl)phenyl)-4,13-dioxo-6,9-dioxa-3,124-diazapentadec-4-enoyl)-4-hydroxy-N-(4-(4-methylthiazol-5-yl)benzyl)pyrrolidine-2-carboxamide, Trifluoroacetic Acid]	0.9 nM
Cc1ncsc1-c1ccc(CNC(=O)[C@@H]2C[C@@H](O)CN2C(=O)[C@@H](NC(=O)CCCCNC(=O)/C=C/c2cc(F)c([C@@H]3c4[nH]c5ccccc5c4C[C@@H](C)N3CC(C)(C)F)c(F)c2)C(C)(C)C)cc1 [Example 60, (2S,4R)-1-((S)-2-(5-((E)-3-(3,5-difluoro-4-((1R,3R)-2-(2-fluoro-2-methylpropyl)-3-methyl-2,3,4,9-tetrahydro-1H-pyrido[3,4-b]indol-1-yl)phenyl)acrylamido)pentanamido)-3,3-dimethylbutanoyl)-4-hydroxy-N-(4-(4-methylthiazol-5-yl)benzyl)pyrrolidine-2-carboxamide, Trifluoroacetic Acid]	0.7 nM
Cc1ncsc1-c1ccc(CNC(=O)[C@@H]2C[C@@H](O)CN2C(=O)[C@@H](NC(=O)COc2ccc(OCCNC(=O)/C=C/c3cc(F)c([C@@H]4c5[nH]c6ccccc6c5C[C@@H](C)N4CC(C)(C)F)c(F)c3)cc2)C(C)(C)C)cc1 [Example 61, (2S,4R)-1-((S)-2-(2-(4-(2-((E)-3-(3,5-difluoro-4-((1R,3R)-2-(2-fluoro-2-methylpropyl)-3-methyl-2,3,4,9-tetrahydro-1H-pyrido[3,4-b]indol-1-yl)phenyl)acrylamido)ethoxy)phenoxy)acetamido)-3,3-dimethylbutanoyl)-4-hydroxy-N-(4-(4-methylthiazol-5-yl)benzyl)pyrrolidine-2-carboxamide, Trifluoroacetic Acid]	1 nM
Cc1ncsc1-c1ccc(CNC(=O)[C@@H]2C[C@@H](O)CN2C(=O)[C@@H](NC(=O)COCCNC(=O)/C=C/c2cc(F)c([C@@H]3c4[nH]c5ccccc5c4C[C@@H](C)N3CC(C)(C)F)c(F)c2)C(C)(C)C)cc1 [Example 62, (2S,4R)-1-((S)-2-(2-(2-((E)-3-(3,5-difluoro-4-((1R,3R)-2-(2-fluoro-2-methylpropyl)-3-methyl-2,3,4,9-tetrahydro-1H-pyrido[3,4-b]indol-1-yl)phenyl)acrylamido)ethoxy)acetamido)-3,3-dimethylbutanoyl)-4-hydroxy-N-(4-(4-methylthiazol-5-yl)benzyl)pyrrolidine-2-carboxamide, Trifluoroacetic Acid]	0.5 nM
Cc1ncsc1-c1ccc(CNC(=O)[C@@H]2C[C@@H](O)CN2C(=O)[C@@H](NC(=O)COCCOCCOCCNC(=O)/C=C/c2cc(F)c([C@@H]3c4[nH]c5ccccc5c4C[C@@H](C)N3CC(C)(C)F)c(F)c2)C(C)(C)C)cc1 [Example 63, (2S,4R)-1-((S,E)-2-(tert-butyl)-18-(3,5-difluoro-4-((1R,3R)-2-(2-fluoro-2-methylpropyl)-3-methyl-2,3,4,9-tetrahydro-1H-pyrido[3,4-b]indol-1-yl)phenyl)-4,16-dioxo-6,9,12-trioxa-3,15-diazaoctadec-17-enoyl)-4-hydroxy-N-(4-(4-methylthiazol-5-yl)benzyl)pyrrolidine-2-carboxamide, Trifluoroacetic Acid]	1 nM

Reference: patent US10519152B2, “Compounds and their use in treating cancer” (AstraZeneca AB, priority 2017, dated 2019)
